Measurements: the NIST ThermoML archive (doi:10.1021/je5009679)

Settings: Liquid; for viscosity: Concentric cylinders viscometry

CCOP(=O)([O-])OCC.CCn1cc[n+](C)c1 [1-ethyl-3-methylimidazolium diethyl phosphate]
101.33 kPa
Settings	viscosity [mPa·s]
293.15 K	664.7
303.15 K	317.3
313.15 K	173.9
323.15 K	103.8
333.15 K	66.37
343.15 K	44.92
353.15 K	31.86
363.15 K	23.5
373.15 K	17.92

Settings	mass density [kg/m3]
293.15 K, 101.33 kPa, Vibrating tube method	1148.2
303.15 K, 101.33 kPa, Vibrating tube method	1141.2
311.4 K, 10000 kPa, Bellows volumetry	1140.5
311.4 K, 20000 kPa, Bellows volumetry	1145.4
311.4 K, 30000 kPa, Bellows volumetry	1150.1
311.4 K, 40000 kPa, Bellows volumetry	1154.6
311.4 K, 50000 kPa, Bellows volumetry	1158.9
311.4 K, 60000 kPa, Bellows volumetry	1163
311.4 K, 70000 kPa, Bellows volumetry	1167
311.4 K, 80000 kPa, Bellows volumetry	1170.9
311.4 K, 90000 kPa, Bellows volumetry	1174.6
311.4 K, 100000 kPa, Bellows volumetry	1178.3
311.4 K, 110000 kPa, Bellows volumetry	1181.8
311.4 K, 120000 kPa, Bellows volumetry	1185.2
311.4 K, 130000 kPa, Bellows volumetry	1188.6
311.4 K, 140000 kPa, Bellows volumetry	1191.8
311.4 K, 150000 kPa, Bellows volumetry	1195.2
311.4 K, 160000 kPa, Bellows volumetry	1198.2
311.4 K, 170000 kPa, Bellows volumetry	1201.4
311.4 K, 180000 kPa, Bellows volumetry	1204.4
311.4 K, 190000 kPa, Bellows volumetry	1207.3
311.4 K, 200000 kPa, Bellows volumetry	1210.3
313.15 K, 101.33 kPa, Vibrating tube method	1134.4
323.15 K, 101.33 kPa, Vibrating tube method	1127.8
331.3 K, 10000 kPa, Bellows volumetry	1127.5
331.3 K, 20000 kPa, Bellows volumetry	1132.6
331.3 K, 30000 kPa, Bellows volumetry	1137.6
331.3 K, 40000 kPa, Bellows volumetry	1142.3
331.3 K, 50000 kPa, Bellows volumetry	1146.8
331.3 K, 60000 kPa, Bellows volumetry	1151.2
331.3 K, 70000 kPa, Bellows volumetry	1155.3
331.3 K, 80000 kPa, Bellows volumetry	1159.4
331.3 K, 90000 kPa, Bellows volumetry	1163.2
331.3 K, 100000 kPa, Bellows volumetry	1167.1
331.3 K, 110000 kPa, Bellows volumetry	1170.7
331.3 K, 120000 kPa, Bellows volumetry	1174.4
331.3 K, 130000 kPa, Bellows volumetry	1177.8
331.3 K, 140000 kPa, Bellows volumetry	1181.3
331.3 K, 150000 kPa, Bellows volumetry	1184.8
331.3 K, 160000 kPa, Bellows volumetry	1187.9
331.3 K, 170000 kPa, Bellows volumetry	1191
331.3 K, 180000 kPa, Bellows volumetry	1194.1
331.3 K, 190000 kPa, Bellows volumetry	1197.3
331.3 K, 200000 kPa, Bellows volumetry	1200.2
333.15 K, 101.33 kPa, Vibrating tube method	1121.2
343.15 K, 101.33 kPa, Vibrating tube method	1114.6
351.4 K, 10000 kPa, Bellows volumetry	1114.6
351.4 K, 20000 kPa, Bellows volumetry	1120
351.4 K, 30000 kPa, Bellows volumetry	1125.2
351.4 K, 40000 kPa, Bellows volumetry	1130.2
351.4 K, 50000 kPa, Bellows volumetry	1134.9
351.4 K, 60000 kPa, Bellows volumetry	1139.5
351.4 K, 70000 kPa, Bellows volumetry	1144
351.4 K, 80000 kPa, Bellows volumetry	1148.1
351.4 K, 90000 kPa, Bellows volumetry	1152.2
351.4 K, 100000 kPa, Bellows volumetry	1156.1
351.4 K, 110000 kPa, Bellows volumetry	1159.9
351.4 K, 120000 kPa, Bellows volumetry	1163.6
351.4 K, 130000 kPa, Bellows volumetry	1167.2
351.4 K, 140000 kPa, Bellows volumetry	1170.7
351.4 K, 150000 kPa, Bellows volumetry	1174.2
351.4 K, 160000 kPa, Bellows volumetry	1177.5
351.4 K, 170000 kPa, Bellows volumetry	1180.8
351.4 K, 180000 kPa, Bellows volumetry	1184
351.4 K, 190000 kPa, Bellows volumetry	1187.1
351.4 K, 200000 kPa, Bellows volumetry	1190.3
353.15 K, 101.33 kPa, Vibrating tube method	1108
363.15 K, 101.33 kPa, Vibrating tube method	1101.5
371.6 K, 10000 kPa, Bellows volumetry	1102
371.6 K, 20000 kPa, Bellows volumetry	1107.7
371.6 K, 30000 kPa, Bellows volumetry	1113.3
371.6 K, 40000 kPa, Bellows volumetry	1118.5
371.6 K, 50000 kPa, Bellows volumetry	1123.4
371.6 K, 60000 kPa, Bellows volumetry	1128.2
371.6 K, 70000 kPa, Bellows volumetry	1132.7
371.6 K, 80000 kPa, Bellows volumetry	1137.2
371.6 K, 90000 kPa, Bellows volumetry	1141.3
371.6 K, 100000 kPa, Bellows volumetry	1145.5
371.6 K, 110000 kPa, Bellows volumetry	1149.4
371.6 K, 120000 kPa, Bellows volumetry	1153.2
371.6 K, 130000 kPa, Bellows volumetry	1157
371.6 K, 140000 kPa, Bellows volumetry	1160.6
371.6 K, 150000 kPa, Bellows volumetry	1164.2
371.6 K, 160000 kPa, Bellows volumetry	1167.7
371.6 K, 170000 kPa, Bellows volumetry	1171
371.6 K, 180000 kPa, Bellows volumetry	1174.3
371.6 K, 190000 kPa, Bellows volumetry	1177.5
371.6 K, 200000 kPa, Bellows volumetry	1180.8
373.15 K, 101.33 kPa, Vibrating tube method	1094.9
391.6 K, 10000 kPa, Bellows volumetry	1089.8
391.6 K, 20000 kPa, Bellows volumetry	1095.6
391.6 K, 30000 kPa, Bellows volumetry	1101.5
391.6 K, 40000 kPa, Bellows volumetry	1107
391.6 K, 50000 kPa, Bellows volumetry	1112.3
391.6 K, 60000 kPa, Bellows volumetry	1117.2
391.6 K, 70000 kPa, Bellows volumetry	1122
391.6 K, 80000 kPa, Bellows volumetry	1126.6
391.6 K, 90000 kPa, Bellows volumetry	1131
391.6 K, 100000 kPa, Bellows volumetry	1135.2
391.6 K, 110000 kPa, Bellows volumetry	1139.4
391.6 K, 120000 kPa, Bellows volumetry	1143.4
391.6 K, 130000 kPa, Bellows volumetry	1147.1
391.6 K, 140000 kPa, Bellows volumetry	1151
391.6 K, 150000 kPa, Bellows volumetry	1154.6
391.6 K, 160000 kPa, Bellows volumetry	1158.1
391.6 K, 170000 kPa, Bellows volumetry	1161.5
391.6 K, 180000 kPa, Bellows volumetry	1165
391.6 K, 190000 kPa, Bellows volumetry	1168.2
391.6 K, 200000 kPa, Bellows volumetry	1171.5
411.7 K, 10000 kPa, Bellows volumetry	1077.9
411.7 K, 20000 kPa, Bellows volumetry	1084.3
411.7 K, 30000 kPa, Bellows volumetry	1090.4
411.7 K, 40000 kPa, Bellows volumetry	1096.2
411.7 K, 50000 kPa, Bellows volumetry	1101.7
411.7 K, 60000 kPa, Bellows volumetry	1106.9
411.7 K, 70000 kPa, Bellows volumetry	1111.9
411.7 K, 80000 kPa, Bellows volumetry	1116.7
411.7 K, 90000 kPa, Bellows volumetry	1120.6
411.7 K, 100000 kPa, Bellows volumetry	1125.1
411.7 K, 110000 kPa, Bellows volumetry	1129.3
411.7 K, 120000 kPa, Bellows volumetry	1133.4
411.7 K, 130000 kPa, Bellows volumetry	1137.4
411.7 K, 140000 kPa, Bellows volumetry	1141.2
411.7 K, 150000 kPa, Bellows volumetry	1145
411.7 K, 160000 kPa, Bellows volumetry	1148.7
411.7 K, 170000 kPa, Bellows volumetry	1152.3
411.7 K, 180000 kPa, Bellows volumetry	1155.8
411.7 K, 190000 kPa, Bellows volumetry	1159.2
411.7 K, 200000 kPa, Bellows volumetry	1162.6
